Bounds are passed on as bounds.

The EC50 is the concentration at which the effect is half-maximal. Low values mean greater potency, high ones weaker potency.

In assay [1] the target is T1, hM2 receptor (Homo sapiens, UniProt P08172).
T1 construct: expressed in transfected cells; host or cells: CHO / CHO-K1
T1 sequence (P08172 1-466): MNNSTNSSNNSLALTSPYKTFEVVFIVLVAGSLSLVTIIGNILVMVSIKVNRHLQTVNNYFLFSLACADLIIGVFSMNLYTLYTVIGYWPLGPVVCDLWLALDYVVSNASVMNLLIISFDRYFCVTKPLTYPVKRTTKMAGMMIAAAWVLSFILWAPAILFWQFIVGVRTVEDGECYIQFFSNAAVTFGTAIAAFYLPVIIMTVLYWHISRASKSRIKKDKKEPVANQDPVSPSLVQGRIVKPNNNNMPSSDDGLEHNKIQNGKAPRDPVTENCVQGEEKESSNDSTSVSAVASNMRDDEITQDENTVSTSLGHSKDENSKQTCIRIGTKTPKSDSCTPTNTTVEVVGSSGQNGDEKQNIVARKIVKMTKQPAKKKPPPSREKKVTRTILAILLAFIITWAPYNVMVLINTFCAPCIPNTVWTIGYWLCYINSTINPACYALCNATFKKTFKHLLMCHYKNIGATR
In words: Blockade of agonist-mediated [35S]GTPγS binding (Assay B). In kind it is biochemical. The settings on record: CHO-K1 cells expressing the hM2 receptor. As for the experimental part:
In this functional assay, the functional potency of a test compound as an antagonist of the hM2 receptor was determined by measuring the ability of the test compound to block oxotremorine-stimulated [^35S]GTPγS binding in CHO-K1 cells expressing the hM2 receptor.
At the time of use, frozen membranes were thawed and then diluted in assay buffer with a final target tissue concentration of 5 to 10 μg protein per well. The membranes were briefly homogenized using a Polytron PT-2100 tissue disrupter and then added to the assay plates.
The EC90 value (effective concentration for 90% maximal response) for stimulation of [^35S]GTPγS binding by the agonist oxotremorine was determined in each experiment.
To determine the ability of a test compound to inhibit oxotremorine-stimulated [^35S]GTPγS binding, the following was added to each well of 96 well plates: 25 μL of assay buffer with [^35S]GTPγS (0.4 nM), 25 μL of oxotremorine(EC90) and GDP (3 uM), 25 μL of diluted test compound and 25 μL CHO cell membranes expressing the hM2 receptor. […] Microscint-20 scintillation liquid (50 μL) was added to each well, and each plate was sealed and radioactivity counted on a Topcounter (PerkinElmer). Data were analyzed by nonlinear regression analysis with the GraphPad Prism Software package (GraphPad Software, Inc., San Diego, Calif.) using the non-linear regression, one-site competition equation. […]

The target of assay [2] is T2, human β2 adrenergic receptor (endogenous, BEAS-2B cells) (Homo sapiens, UniProt P07550).
T2 construct: using a cell line expressing endogenous levels of the β2 adrenergic receptor; host or cells: BEAS-2B human lung epithelial cell line
T2 sequence (P07550 whole entry): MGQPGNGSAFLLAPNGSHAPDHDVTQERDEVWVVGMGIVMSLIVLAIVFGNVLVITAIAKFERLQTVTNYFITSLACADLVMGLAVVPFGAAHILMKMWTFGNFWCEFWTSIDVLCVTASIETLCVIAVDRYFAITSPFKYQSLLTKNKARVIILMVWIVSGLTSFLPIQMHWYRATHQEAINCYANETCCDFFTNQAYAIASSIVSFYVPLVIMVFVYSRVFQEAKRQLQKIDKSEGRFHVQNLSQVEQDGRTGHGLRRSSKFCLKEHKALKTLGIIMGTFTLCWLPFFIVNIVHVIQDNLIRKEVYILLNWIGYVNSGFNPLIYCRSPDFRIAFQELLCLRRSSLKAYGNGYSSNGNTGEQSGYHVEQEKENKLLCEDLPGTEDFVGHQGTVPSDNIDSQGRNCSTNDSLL
In words: Whole-cell cAMP Flashplate assay with lung epithelial cell line (BEAS-2B). It is filed as cell-based. As for the experimental part:
In this assay, the agonist potency and intrinsic activity of a test compound were determined using a cell line expressing endogenous levels of the β2 adrenergic receptor.
On the day of the assay, cells were rinsed with PBS, lifted by scraping with 5 mM EDTA in PBS, and counted. Cells were pelleted by centrifugation at 1,000 rpm and re-suspended in stimulation buffer pre-warmed to 37° C. at a final concentration of 600,000 cells/mL. Cells were used at a final concentration of 100,000 to 120,000 cells/well in this assay. […] Test compounds were tested in the assay at 11 different concentrations, ranging from 10 μM to 10 pM. Reactions were incubated for 10 min at 37° C. and stopped by addition of 100 μL of ice-cold detection buffer. Plates were sealed, incubated over night at 4° C. and counted the next morning in a Topcount scintillation counter (Packard BioScience Co., Meriden, Conn.). […] Data were analyzed by nonlinear regression analysis with the GraphPad Prism Software package (GraphPad Software, Inc., San Diego, Calif.) using the 4-parameter model for sigmoidal dose-response.

Assay [3] has as its target T1, hM2 receptor. In words: Blockade of agonist-mediated inhibition of cAMP accumulation (Assay A). It is filed as cell-based. Conditions: CHO-K1 cells expressing the hM2 receptor. As to the method: In this assay, the functional potency of a test compound as an antagonist for the hM2 receptor was determined by measuring the ability of the test compound to block oxotremorine-inhibition of forskolin-mediated cAMP accumulation in CHO-K1 cells expressing the hM2 receptor. cAMP assays were performed in a radioimmunoassay format using the Flashplate Adenylyl Cyclase Activation Assay System with ^125I-cAMP (NEN SMP004B, PerkinElmer Life Sciences Inc., Boston, Mass.), according to the manufacturer's instructions. Cells were rinsed once with dPBS and lifted with Trypsin-EDTA solution (0.05% trypsin/0.53 mM EDTA) as described in the Cell Culture and Membrane Preparation section above. The detached cells were washed twice by centrifugation at 650×g for five minutes in 50 mL dPBS. The cell pellet was then re-suspended in 10 mL dPBS, and the cells were counted with a Coulter Z1 Dual Particle Counter (Beckman Coulter, Fullerton, Calif.). […]
Reactions were incubated for 10 minutes at 37° C. and stopped by addition of 100 μL ice-cold detection buffer. Plates were sealed, incubated overnight at room temperature and counted the next morning on a PerkinElmer TopCount liquid scintillation counter (PerkinElmer Inc., Wellesley, Mass.). The amount of cAMP produced (pmol/well) was calculated based on the counts observed for the samples and cAMP standards, as described in the manufacturer's user manual. […]
In general terms: cAMP levels reflect the balance of adenylyl cyclase and phosphodiesterase activity.

On to `Cc1cc(NC(=O)CCN2CCC(OC(=O)Nc3ccccc3-c3ccccc3)CC2)c(C)cc1CNC[C@H](O)c1ccc(O)c(NC=O)c1` [compound of formula I, biphenyl-2-ylcarbamic acid 1-[2-(4-{[(R)-2-(3-formylamino-4-hydroxyphenyl)-2-hydroxyethylamino]methyl}-2,5-dimethylphenylcarbamoyl)ethyl]-piperidin-4-yl ester], for which the “Kobs for blockade of oxotremorine-stimulated [35S]GTPγS binding” value in assay [1] is on record as “less than 10 nM”. The EC50 in assay [2] (cAMP) is less than 0.01 µM. Further, in assay [2] (compared with full β2 agonist isoproterenol (1.0)), the intrinsic activity result is listed as “greater than 0.3”. Moreover, in assay [3], the “Kobs for blockade of oxotremorine-inhibition of forskolin-mediated cAMP accumulation” value is given as “less than 10 nM”.

The values are drawn from patent publication US7880010B2, “Crystalline forms of a dimethylphenyl compound” (Theravance, Inc., priority 2006, dated 2011).
